Data as given in patent US8772292B2, “Process for the preparation of a medicament comprising vardenafil hydrochloride trihydrate” (Ratiopharm GmbH, priority 2007, dated 2014).
Structures can show the parent of a compound that is named as a salt.

Assay: Raman spectra after processing steps (hydrate stability in tablets)
Type: physicochemical
Description: Vardenafil hydrochloride trihydrate and anhydrate can be identified and distinguished from one another e.g. by means of Raman spectroscopy.
Raman spectra were recorded after the processing steps of precompacting, subsequent mixing, pressing and coating (FIGS. 1 and 2). For this, the film was scratched off from the film-coated tablets beforehand. The Raman spectra of the pure vardenafil hydrochloride trihydrate and of the anhydrate are also shown for comparison.
In the relevant range of 1694-1702 cm^−1, the auxiliaries used in Example 1 had no influence on the vardenafil bands (measurement on a placebo tablet is not also shown).

CCCc1nc(C)c2c(=O)[nH]c(-c3cc(S(=O)(=O)N4CCN(CC)CC4)ccc3OCC)nn12 [Vardenafil hydrochloride trihydrate, {2-ethoxy-5-[(4-ethyl-1-piperazinyl)sulfonyl]phenyl}-5-methyl-7-propylimidazo-[5,1-f][1,2,4]triazin-4(3H)one]
stability of the hydrate under the processing conditions (Example 4: coating at intake air temperature of 60-65° C.): dehydrated | stability of the hydrate under the processing conditions (Examples 1 to 3: approx. 23° C., 33-35% rel. humidity, coating intake air 45° C.): stable
